Test results from patent US20120095032A1, “METHODS FOR TREATING LEUKEMIA AND MYELODYSPLASTIC SYNDROME, AND METHODS FOR IDENTIFYING AGENTS FOR TREATING SAME” (Sanford-Burnham Medical Research Institute, priority 2007, published 2012).
pIC50: −log10 of the molar value.

Legend:
HePTP [1] = biological target: T1, HePTP (Homo sapiens, UniProt P35236); test: HePTP dose-response confirmation screening; type: biochemical; settings: for pIC50: 10 concentrations, 2-fold serial dilution, pNPP substrate; for n / nH (Hill coefficient): Hill coefficient of the dose-response curve
T1 sequence (P35236 1-360): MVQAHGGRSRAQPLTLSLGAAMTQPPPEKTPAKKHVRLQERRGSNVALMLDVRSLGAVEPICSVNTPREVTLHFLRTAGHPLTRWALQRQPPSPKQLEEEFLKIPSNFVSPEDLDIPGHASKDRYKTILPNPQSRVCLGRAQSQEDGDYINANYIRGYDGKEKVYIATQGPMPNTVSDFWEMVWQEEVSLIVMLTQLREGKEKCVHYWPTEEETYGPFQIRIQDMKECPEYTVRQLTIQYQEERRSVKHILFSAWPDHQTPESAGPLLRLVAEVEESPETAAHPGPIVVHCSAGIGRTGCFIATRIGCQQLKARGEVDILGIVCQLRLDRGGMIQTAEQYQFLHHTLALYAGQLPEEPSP
Excerpt: (§1) The following assay can be conducted manually or can be carried out by a robotic station.
(§2) Compounds are then serially diluted in 100% DMSO, and then diluted with water to 10% final DMSO concentration.
(§3) The primary screening actives can then proceed to the dose-response confirmation stage.
* n represents the Hill coefficient. This coefficient is derived from the Hill equation which has the formula: […]
wherein θ is the fraction of ligand binding sites filled, L is the inhibitor concentration, Ka is the inhibitor concentration producing half occupation of the ligand binding sites, and n is the Hill coefficient.

HePTP [2] = biological target: T1, HePTP; test: HePTP HTS primary screen (colorimetric pNPP / Biomol Green); type: biochemical; settings: 20 μM compound; read-out: % Inhib. at 20 μM
Excerpt: as §1
For this assay, HePTP catalyzes the following reaction:
wherein p-nitrophenyl phosphate serves as a substrate and is cleaved to form p-nitrophenol and phosphate. The liberated phosphate complexes with the Biomol Green™ reagent to provide a quantitative colorimetric value for the amount of substrate cleaved.
as §2, §3

Row | pIC50 (HePTP [1]) | n / nH (Hill coefficient) (HePTP [1]) | inhibition at 20 µM (HePTP [2]) [%] | SMILES
1 | 5.33 | 1.52 | 62 | O=C(NCc1ccco1)c1c2c(nc3ccccc13)CCC2 [N-(Furan-2-ylmethyl)-2,3-dihydro-1h-cyclopenta[b]quinoline-9-carboxamide;]
2 | 5.61 | 2.33 | 90.2 | Cn1cnnc1SCC(=O)Nc1sc2c(c1C(=O)ON)CCC2 [N-[3-(aminooxycarbonyl)-5,6-dihydro-4H-cyclopenta[b]thiophen-2-yl]-2-(4-methyl-4H-1,2,4-triazol-3-ylthio)acetamide]
3 | 5.28 | 0.29 | 59 | CCc1ccc(OCC(=O)NC2=CC(=O)/C(=C3/Nc4ccccc4O3)C=C2)cc1 [N-[(4Z)-4-(3H-Benzooxazol-2-ylidene)-3-oxo-1-cyclohexa-1,5-dienyl]-2-(4-ethylphenoxy)acetamide]
4 | 7.00 | 0.6 | 98 | Cn1nnnc1SCC1=C(C(=O)[O-])N2C(=O)[C@H](NC(=O)[C@H](O)c3ccccc3)[C@H]2SC1.[Na+] [Sodium (6R,7S)-7-[[(2R)-2-hydroxy-2-phenyl-acetyl]amino]-3-[(1-methyltetrazol-5-yl)sulfanylmethyl]-8-oxo-5-thia-1-azabicyclo[4.2.0]oct-2-ene-2-carboxylate]

The remaining lines, values behind:

Row | SMILES | pIC50 (HePTP [1]) | n / nH (Hill coefficient) (HePTP [1]) | inhibition at 20 µM (HePTP [2]) [%]
5 | COc1ccc(Cc2nnc(NC(=O)Cc3cccs3)s2)cc1 [N-{5-[(4-methoxyphenyl)methyl]-1,3,4-thiadiazol-2-yl}-2-thiophen-2-ylacetamide] | 5.40 | 2.33 | 103
6 | CC(=O)OCC1=C(C(=O)[O-])N2C(=O)[C@H](NC(=O)Cc3cccs3)[C@H]2SC1.[Na+] [Sodium (6R,7S)-3-(acetyloxymethyl)-8-oxo-7-[(2-thiophen-2-ylacetyl)amino]-5-thia-1-azabicyclo[4.2.0]oct-2-ene-2-carboxylate] | 6.04 | 1.12 | 96.2
7 | CC(C)Cn1c(N)c(C(=O)COC(=O)c2cc(-c3ccco3)nc3ccccc23)c(=O)n(C)c1=O [[2-[4-Amino-1-methyl-3-(2-methylpropyl)-2,6-dioxo-pyrimidin-5-yl]-2-oxo-ethyl] 2-(2-furyl)quinoline-4-carboxylate] | 5.28 | 2.48 | 89.7
8 | COc1ccc(C(=O)c2no[n+]([O-])c2C(=O)c2ccc(OC)cc2)cc1 [[4-(4-Methoxybenzoyl)-2-oxido-1-oxa-5-aza-2-azoniacyclopenta-2,4-dien-3-yl]-(4-methoxyphenyl)methanone] | 4.95 | 0.45 | 86.3
9 | CC(C)CN(C(=O)COC(=O)c1cc2c(s1)CCC2)C1CCS(=O)(=O)C1 (stereo not drawn) [[(1,1-Dioxothiolan-3-yl)-(2-methylpropyl)carbamoyl]methyl 4-thiabicyclo[3.3.0]octa-2,9-diene-3-carboxylate] | 5.92 | 1.52 | 58.7
